Measurements: publication PMC9823088, “The oral selective estrogen receptor degrader GDC-0810 (ARN-810) in postmenopausal women with hormone receptor-positive HER2-negative (HR + /HER2 −) advanced/metastatic breast cancer” (Breast Cancer Research and Treatment, 2022)

Key:
[1] = test system: tamoxifen-sensitive ER + breast cancer xenograft; settings: tamoxifen-sensitive ER + breast cancer xenograft models; cited from earlier work
ERα = test system: ERα; design: method as in PMID 27410477; settings: MCF-7 breast cancer cell; cited from earlier work
[2] = test system: ER + (HER2 −) locally advanced or metastatic breast cancer; experiment: Anti-tumor activity per RECIST v1.1 (best confirmed overall outcome, clinical benefit rate, progression-free survival), phase Ia/Ib/IIa study; format: in vivo, human
From the text: This was a multi-institutional phase Ia/Ib/IIa, open-label, dose finding, safety, pharmacokinetics, and proof-of-concept study of GDC-0810 in women with ER + metastatic breast cancer. Phase Ia employed a standard 3 + 3 dose-escalation scheme. Phase Ib was dose escalation as part of combination treatment. Phase IIa explored the recommended phase 2 dose (RP2D) from phase Ia. The protocol was approved by institutional review boards (IRBs) at participating institutions. Written informed consent was obtained from patients prior to performing any procedures; the study was conducted in accordance with the principles of the Declaration of Helsinki and Good Clinical Practice.
(§1) Blood samples were collected for pharmacokinetic assessments. Tumor assessments were performed at screening and every 8 weeks from cycle 1, day 1 (C1D1). Radiographic assessment of objective tumor response or disease progression was based on Response Evaluation Criteria in Solid Tumors (RECIST v1.1). Transvaginal ultrasound scans were performed to monitor endometrial thickness at screening, at every 6 months from C1D1, and at the end of treatment. Imaging with [^18F]-fluoroestradiol positron emission tomography (FES-PET) was performed to quantify ER expression in tumors and to assess for pharmacodynamic response. Further assessment details are provided in Supplementary Methods.
Analyses of safety, pharmacokinetics, anti-tumor activity, and data from the FES-PET imaging correlative studies were planned. Confirmatory inferential analyses and imputation for missing data were not planned due to the exploratory nature of this study. Descriptive statistics were used to summarize patient data. The number of patients to be enrolled was dependent upon the observed safety and pharmacokinetic profile during dose escalations. The safety- and efficacy-evaluable population included patients who received at least one dose of the study drug. Safety was assessed through summaries of DLTs, AEs, changes in select laboratory test results, vital signs, ECGs, and changes in endometrial thickness. Objective response (with confirmation) and clinical benefit rates (CBR) were derived per RECIST v1.1 and summarized by dose level and cohort.
CYP2B6 and CYP2C enzymes. No hormonal therapy, chemotherapy, immunotherapy, or experimental anti-cancer medications were permitted during the study. […]
(§2) Tumor assessments were performed at screening and every 8 weeks from cycle-1, day-1 (C1D1). Radiographic assessment of objective tumor response or disease progression was based on Response Evaluation Criteria in Solid Tumors (RECIST v1.1). Transvaginal ultrasound scans were performed to monitor endometrial thickness at screening, at every 6 months from C1D1, and at the end of treatment. […]

[3] = Endometrial thickness by transvaginal ultrasound; format: in vivo, human
Method: as §1, with “Methods. […]” for “Methods.”
as §2

[4] = all patients, phase IIa A1, 600 mg QD, n = 19
[5] = all patients, phase IIa A2, 600 mg QD, n = 10
[6] = all patients, phase IIa B1, 600 mg QD, n = 53
[7] = all patients, phase IIa B2, 600 mg QD, n = 19
[8] = all patients, phase Ia cohorts 1–9, 100–800-mg BID, 300–400-mg QD, n = 41
[9] = all patients, phase Ib C1, 400 mg QD + PALBO, n = 4
[10] = all patients, phase Ib D1, 600 mg QD + LHRH-A, n = 6
[11] = overall, 3 study phases (152 patients)
[12] = patients (n = 77) with tumors harboring ESR1 mutations
[13] = patients with tumors harboring ESR1 mutations
[14] = tumors harboring ESR1 mutations, phase IIa A1, 600 mg QD, n = 19
[15] = tumors harboring ESR1 mutations, phase IIa A2, 600 mg QD, n = 9
[16] = tumors harboring ESR1 mutations, phase IIa B1, 600 mg QD, n = 20
[17] = tumors harboring ESR1 mutations, phase IIa B2, 600 mg QD, n = 4
[18] = tumors harboring ESR1 mutations, phase Ia cohorts 1–9, 100–800-mg BID, 300–400-mg QD, n = 23
[19] = tumors harboring ESR1 mutations, phase Ib D1, 600 mg QD + LHRH-A, n = 2

CC/C(=C(/c1ccc(/C=C/C(=O)O)cc1)c1ccc2[nH]ncc2c1)c1ccc(F)cc1Cl [GDC-0810]
tumor regression [1]: induced tumor regression | proteasomal degradation of ERα (ERα): induced proteasomal degradation of ERα | response of ER to estrogens (ERα): fully antagonized | CBR ([2]; 17 patients in phase Ia previously treated with fulvestrant): 35% | median time to event (median PFS) ([2]; 54 patients in study phases Ib/IIa with tumors harboring ESR1 mutations): 3.5 months | median time to event (median PFS) ([2]; 111 patients in study phases Ib/IIa): 3.5 months | Missing or unevaluable [2, 4]: 1 (5%) n (%) | Non-complete response/non-progressive disease [2, 4]: 5 (26%) n (%) | Partial response [2, 4]: 0 n (%) | Progressive disease [2, 4]: 9 (47%) n (%) | Stable disease [2, 4]: 4 (21%) n (%) | Missing or unevaluable [2, 5]: 2 (20%) n (%) | Non-complete response/non-progressive disease [2, 5]: 0 n (%) | Partial response [2, 5]: 0 n (%) | Progressive disease [2, 5]: 4 (40%) n (%) | Stable disease [2, 5]: 4 (40%) n (%) | Missing or unevaluable [2, 6]: 3 (6%) n (%) | Non-complete response/non-progressive disease [2, 6]: 8 (15%) n (%) | Partial response [2, 6]: 4 (8%) n (%) | Progressive disease [2, 6]: 21 (40%) n (%) | Stable disease [2, 6]: 17 (32%) n (%) | Missing or unevaluable [2, 7]: 0 n (%) | Non-complete response/non-progressive disease [2, 7]: 4 (21%) n (%) | Partial response [2, 7]: 0 n (%) | Progressive disease [2, 7]: 11 (58%) n (%) | Stable disease [2, 7]: 4 (21%) n (%) | Non-complete response/non-progressive disease [2, 8]: 0 n (%) | Partial response [2, 8]: 2 (5%) n (%) | Progressive disease [2, 8]: 12 (29%) n (%) | Stable disease [2, 8]: 26 (63%) n (%) | Missing or unevaluable [2, 9]: 0 n (%) | Non-complete response/non-progressive disease [2, 9]: 1 (25%) n (%) | Partial response [2, 9]: 0 n (%) | Progressive disease [2, 9]: 1 (25%) n (%) | Stable disease [2, 9]: 2 (50%) n (%) | Missing or unevaluable [2, 10]: 0 n (%) | Non-complete response/non-progressive disease [2, 10]: 1 (17%) n (%) | Partial response [2, 10]: 0 n (%) | Progressive disease [2, 10]: 3 (50%) n (%) | Stable disease [2, 10]: 2 (33%) n (%) | Progressive disease ([2]; overall population): 40% | Stable disease ([2]; overall population): 39% | missing/unevaluable ([2]; overall population): 5% | non-complete response/non-progressive disease ([2]; overall population): 13% | partial responses ([2]; overall population): 4% | Progressive disease [2, 11]: 61 (40%) n (%) | Stable disease [2, 11]: 59 (39%) n (%) | non-complete response/non-progressive disease [2, 11]: 19 (13%) n (%) | partial responses [2, 11]: 6 (4%) n (%) | CBR ([2]; overall, 3 study phases, n = 40): 26% | Progressive disease [2, 12]: 29 (38%) n (%) | Stable disease [2, 12]: 32 (42%) n (%) | missing/unevaluable [2, 12]: 4 (5%) n (%) | non-complete response/non-progressive disease [2, 12]: 9 (12%) n (%) | partial responses [2, 12]: 3 (4%) n (%) | Progressive disease [2, 13]: 38% | Stable disease [2, 13]: 42% | missing/unevaluable [2, 13]: 5% | non-complete response/non-progressive disease [2, 13]: 12% | partial responses [2, 13]: 4% | CBR (responses or SD lasting ≥ 24 weeks) ([2]; phase Ia dose escalation, 16 patients): 39% | Missing or unevaluable ([2]; phases Ib and IIa (n = 111)): 6 (5%) n (%) | PD, best confirmed overall outcome ([2]; phases Ib and IIa (n = 111)): 49 (44%) n (%) | non-complete response or non-progressive disease (non CR/PD) ([2]; phases Ib and IIa (n = 111)): 19 (17%) n (%) | CBR ([2]; phases Ib combination treatments and IIa expansion cohorts (n = 111), n = 24): 22% | CBR ([2]; tumors harboring ESR1 mutations, phase Ib/IIa (8 of 54 patients)): 15% | Missing or unevaluable [2, 14]: 1 (5%) n (%) | Non-complete response/non-progressive disease [2, 14]: 5 (26%) n (%) | Partial response [2, 14]: 0 n (%) | Progressive disease [2, 14]: 9 (47%) n (%) | Stable disease [2, 14]: 4 (21%) n (%) | Missing or unevaluable [2, 15]: 2 (22%) n (%) | Non-complete response/non-progressive disease [2, 15]: 0 n (%) | Partial response [2, 15]: 0 n (%) | Progressive disease [2, 15]: 4 (44%) n (%) | Stable disease [2, 15]: 3 (33%) n (%) | Missing or unevaluable [2, 16]: 1 (5%) n (%) | Non-complete response/non-progressive disease [2, 16]: 3 (15%) n (%) | Partial response [2, 16]: 1 (5%) n (%) | Progressive disease [2, 16]: 7 (35%) n (%) | Stable disease [2, 16]: 8 (40%) n (%) | Missing or unevaluable [2, 17]: 0 n (%) | Non-complete response/non-progressive disease [2, 17]: 1 (25%) n (%) | Partial response [2, 17]: 0 n (%) | Progressive disease [2, 17]: 2 (50%) n (%) | Stable disease [2, 17]: 1 (25%) n (%) | Missing or unevaluable [2, 18]: 0 n (%) | Non-complete response/non-progressive disease [2, 18]: 0 n (%) | Partial response [2, 18]: 2 (9%) n (%) | Progressive disease [2, 18]: 6 (26%) n (%) | Stable disease [2, 18]: 15 (65%) n (%) | Missing or unevaluable [2, 19]: 0 n (%) | Non-complete response/non-progressive disease [2, 19]: 0 n (%) | Partial response [2, 19]: 0 n (%) | Progressive disease [2, 19]: 1 (50%) n (%) | Stable disease [2, 19]: 1 (50%) n (%) | patients with an increase in the thickness of endometrium compared to baseline ([3]; 10 patients in phase Ia with baseline and at least one follow-up scan): 9 (90%) n (%) | change in endometrial thickness, range ([3]; phase Ia): 0 to 11 mm | mean change in endometrial thickness ([3]; phase Ia): 4.4 mm | median change in endometrial thickness ([3]; phase Ia): 3.5 mm
